In PMC4666608, “Metabolic Profiling of Chicken Embryos Exposed to Perfluorooctanoic Acid (PFOA) and Agonists to Peroxisome Proliferator-Activated Receptors” (PLoS ONE, 2015):
Marks after values point to notes of the source that are not given here.

Tested on: chicken embryos
Assay: Metabolic profiling of allantoic fluid (GC-MS, LC-MS, OPLS-DA)
Format: in vivo, Gallus gallus domesticus
Settings: LC; for Mean concentration relative to control, feature 155.0353@0.6447272: suggested C3H10NO4P; for Mean concentration relative to control, feature 345.0497@1.1234403: suggested C10H12N5O7P; for Mean concentration relative to control, feature 337.0259@4.4213357: suggested C13H11N3O4S2; for Mean concentration relative to control, feature 344.1427@2.1164653: suggested C13H20N4O7; for Mean concentration relative to control, feature 331.184@6.373359: suggested C13H25N5O5; for Mean concentration relative to control, feature 361.2026@5.6644735: suggested C16H31N3O4S
Procedure: Controls were injected with 20 μL vehicle only (DMSO).
Plasma was collected and stored at -70°C.
Metabolites in allantoic fluid and blood plasma were analyzed using gas chromatography-mass spectrometry (GC-MS) and liquid chromatography-mass spectrometry (LC-MS) as described in S1 Methods. Prior to GC-MS and LC-MS analysis, allantoic fluid (100 μL) and blood plasma (50 μL) were extracted. To each sample, 900 μL (allantoic fluid) or 450 μL (blood plasma) of extraction buffer (90/10 v/v methanol:water) including all internal standards were added. Standards for GC-MS were proline, succinic acid, glutamic acid, salicylic acid, alpha-ketoglutarate, putrescine, myristic acid, hexadecanoic acid, cholesterol, and sucrose. Standards for LC-MS were Val-Tyr-Val, Leu-enkephalin, sulfadimethoxine and reserpine. Samples were homogenized by shaking in a bead mill at a frequency of 30 Hz for 3 minutes and proteins were precipitated at +4°C on ice. The samples were centrifuged at +4°C, 14000 rpm, for 10 min. Then, 200 μL supernatant was transferred to a GC microvial and 200 μL was transferred to an LC microvial, and solvents were evaporated. Samples from the four replicate experiments were analyzed using in chronological order and within each replicate experiment the run order of the individual samples was randomized.
Multivariate statistical analyses of metabolite profiles were performed using the software package SIMCA-P version 13.0 (Umetrics, Umeå, Sweden). Data was centered and scaled to variance 1 (UV scaling) prior to modelling. To reduce unintended systematic variation caused by sample processing and instrument drift, GC-MS and LC-MS metabolite amounts (expressed as the area under the chromatographic peak) were normalized by Orthogonal Partial Least Squares analysis (O2PLS) prior to multivariate data analysis. O2PLS finds common (predictive) and unique (orthogonal) variation in two data matrices. If applied to find the common variation between the data matrix containing the measured metabolite concentrations and a matrix containing only the internal standards, the only common (predictive) variation expected is due to the unintended systematic variation. By deleting the contribution of the predictive latent variables, that variation can be removed from the data. Models obtained after this normalization contain in general less latent variables, and this simplification helps when deciding on the number of latent variables to be used. Following normalization, GC-MS and LC-MS data were analyzed together. Initially, a global Principal Component Analysis (PCA) was performed to get an overview of groups and trends and to identify outliers. Projections to latent structures by means of Orthogonal Partial Least Squares Discriminant Analysis (OPLS-DA) was used to model the relationship between the X-matrix (metabolite concentrations) and the Y matrix (class, i.e. exposure group or sex), and to find x-variables that were related to class belonging. OPLS-DA is a supervised prediction and regression method that rotates the projection plane to find the maximum covariance between the data and the class assignment. All groups were first analyzed together in a 5-class OPLS-DA and then each exposure group was analyzed against the control group in a 2-class OPLS-DA. Sex differences were analyzed both using the whole data set and in each group separately using 2-class OPLS-DA, with females and males as the two classes. Only variables with 80% or more nonzero values were included in the statistical models. […] The validity of each model was also checked using CV-ANOVA (ANOVA of the cross-validated residuals). A significance level of p < 0.05 was used. For each model, R ^2 X, R ^2 Y and Q ^2 values were calculated, where R ^2 X is a measure of the fraction of x variation modeled in the extracted latent variables, R ^2 Y is a measure of the fraction of y variation modeled and Q ^2 is an estimate of the predictive ability of the model and is calculated by cross-validation. […]

O=C(O)C(F)(F)C(F)(F)C(F)(F)C(F)(F)C(F)(F)C(F)(F)C(F)(F)F [PFOA, perfluorooctanoic acid]
0.8: Mean concentration relative to control, feature 361.2026@5.6644735 (PFOA 50 μg/egg)
0.8*: Mean concentration relative to control, feature 333.2005@6.5291867 (PFOA 250 μg/egg)
1.0: Mean concentration relative to control, feature 466.0837@2.1187525 (PFOA 50 μg/egg) | Mean concentration relative to control, feature 488.0753@4.419585 (PFOA 50 μg/egg) | Mean concentration relative to control, feature 498.1003@2.1184251 (PFOA 50 μg/egg) | Mean concentration relative to control, feature 507.1682@2.1238236 (PFOA 50 μg/egg) | Mean concentration relative to control, feature 580.1426@3.0726147 (PFOA 50 μg/egg) | Mean concentration relative to control, feature 582.1578@2.1747615 (PFOA 50 μg/egg) | Mean concentration relative to control, feature 588.1751@2.1182237 (PFOA 50 μg/egg) | Mean concentration relative to control, feature 594.1337@3.0724604 (PFOA 50 μg/egg) | Mean concentration relative to control, feature 604.1486@2.1174603 (PFOA 50 μg/egg) | Mean concentration relative to control, feature 668.2625@6.4379454 (PFOA 50 μg/egg) | Mean concentration relative to control, feature 337.0259@4.4213357 (PFOA 50 μg/egg) | Mean concentration relative to control, feature 344.1427@2.1164653 (PFOA 50 μg/egg) | Mean concentration relative to control, feature 178.0428@1.7582192 (PFOA 250 μg/egg) | Mean concentration relative to control, feature 180.0048@4.421465 (PFOA 250 μg/egg) | Mean concentration relative to control, feature 197.0639@2.1181405 (PFOA 250 μg/egg) | Mean concentration relative to control, feature 202.0429@2.9548414 (PFOA 250 μg/egg) | Mean concentration relative to control, feature 205.0533@4.421879 (PFOA 250 μg/egg) | Mean concentration relative to control, feature 226.0107@4.421457 (PFOA 250 μg/egg) | Mean concentration relative to control, feature 241.0551@2.3510706 (PFOA 250 μg/egg) | Mean concentration relative to control, feature 243.1118@2.1537287 (PFOA 250 μg/egg) | Mean concentration relative to control, feature 244.9972@4.421603 (PFOA 250 μg/egg) | Mean concentration relative to control, feature 263.0855@2.2847009 (PFOA 250 μg/egg) | Mean concentration relative to control, feature 270.0441@1.1407775 (PFOA 250 μg/egg) | Mean concentration relative to control, feature 280.1425@2.730277 (PFOA 250 μg/egg) | Mean concentration relative to control, feature 289.1012@3.249983 (PFOA 250 μg/egg) | Mean concentration relative to control, feature 294.1242@2.3692534 (PFOA 250 μg/egg) | Mean concentration relative to control, feature 308.073@4.4211636 (PFOA 250 μg/egg) | Mean concentration relative to control, feature 310.1181@1.5090439 (PFOA 250 μg/egg) | Mean concentration relative to control, feature 344.1424@2.348947 (PFOA 250 μg/egg) | Mean concentration relative to control, feature 394.167@3.9552917 (PFOA 250 μg/egg) | Mean concentration relative to control, feature 488.0753@4.419585 (PFOA 250 μg/egg) | Mean concentration relative to control, feature 498.1003@2.1184251 (PFOA 250 μg/egg) | Mean concentration relative to control, feature 507.1682@2.1238236 (PFOA 250 μg/egg) | Mean concentration relative to control, feature 604.1486@2.1174603 (PFOA 250 μg/egg) | Mean concentration relative to control, feature 668.2625@6.4379454 (PFOA 250 μg/egg) | Mean concentration relative to control, feature 337.0259@4.4213357 (PFOA 250 μg/egg) | Mean concentration relative to control, feature 344.1427@2.1164653 (PFOA 250 μg/egg)
0.4*: Mean concentration relative to control, feature 155.0353@0.6447272 (PFOA 50 μg/egg)
0.9: Mean concentration relative to control, feature 623.183@2.1249466 (PFOA 50 μg/egg) | Mean concentration relative to control, feature 331.184@6.373359 (PFOA 50 μg/egg) | Mean concentration relative to control, feature 134.0239@1.1350567 (PFOA 250 μg/egg) | Mean concentration relative to control, feature 189.1159@1.9209185 (PFOA 250 μg/egg) | Mean concentration relative to control, feature 214.016@2.1190732 (PFOA 250 μg/egg) | Mean concentration relative to control, feature 245.1563@2.2907295 (PFOA 250 μg/egg) | Mean concentration relative to control, feature 333.1335@2.8639288 (PFOA 250 μg/egg) | Mean concentration relative to control, feature 335.1866@4.508565 (PFOA 250 μg/egg) | Mean concentration relative to control, feature 337.1651@1.8737898 (PFOA 250 μg/egg) | Mean concentration relative to control, feature 349.1651@2.4087605 (PFOA 250 μg/egg) | Mean concentration relative to control, feature 357.1997@6.9691257 (PFOA 250 μg/egg) | Mean concentration relative to control, feature 375.1819@3.672254 (PFOA 250 μg/egg) | Mean concentration relative to control, feature 361.2026@5.6644735 (PFOA 250 μg/egg)
0.7**: Mean concentration relative to control, feature 305.1684@5.2955093 (PFOA 250 μg/egg) | Mean concentration relative to control, feature 331.184@6.373359 (PFOA 250 μg/egg)
1.1: Mean concentration relative to control, feature 345.0497@1.1234403 (PFOA 50 μg/egg) | Mean concentration relative to control, feature 145.0538@3.072527 (PFOA 250 μg/egg) | Mean concentration relative to control, feature 147.0328@3.0722888 (PFOA 250 μg/egg) | Mean concentration relative to control, feature 160.0323@1.1950632 (PFOA 250 μg/egg) | Mean concentration relative to control, feature 173.0488@3.0734746 (PFOA 250 μg/egg) | Mean concentration relative to control, feature 201.012@3.046474 (PFOA 250 μg/egg) | Mean concentration relative to control, feature 236.0816@3.0720985 (PFOA 250 μg/egg) | Mean concentration relative to control, feature 250.0981@3.072492 (PFOA 250 μg/egg) | Mean concentration relative to control, feature 262.0978@2.7961144 (PFOA 250 μg/egg) | Mean concentration relative to control, feature 278.0928@3.0723689 (PFOA 250 μg/egg) | Mean concentration relative to control, feature 302.0508@3.0722616 (PFOA 250 μg/egg) | Mean concentration relative to control, feature 316.0389@3.0725708 (PFOA 250 μg/egg) | Mean concentration relative to control, feature 320.0626@3.0729218 (PFOA 250 μg/egg) | Mean concentration relative to control, feature 325.1114@2.1190624 (PFOA 250 μg/egg) | Mean concentration relative to control, feature 325.1115@2.3554378 (PFOA 250 μg/egg) | Mean concentration relative to control, feature 348.0553@3.0730357 (PFOA 250 μg/egg) | Mean concentration relative to control, feature 414.1482@2.118972 (PFOA 250 μg/egg) | Mean concentration relative to control, feature 466.0837@2.1187525 (PFOA 250 μg/egg) | Mean concentration relative to control, feature 588.1751@2.1182237 (PFOA 250 μg/egg) | Mean concentration relative to control, feature 623.183@2.1249466 (PFOA 250 μg/egg) | Mean concentration relative to control, feature 345.0497@1.1234403 (PFOA 250 μg/egg)
0.5*: Mean concentration relative to control, feature 176.0952@1.3890611 (PFOA 250 μg/egg)
1.2: Mean concentration relative to control, feature 279.1248@2.796395 (PFOA 250 μg/egg) | Mean concentration relative to control, feature 288.1166@2.9551322 (PFOA 250 μg/egg) | Mean concentration relative to control, feature 289.173@7.5030584 (PFOA 250 μg/egg) | Mean concentration relative to control, feature 371.1513@3.0009465 (PFOA 250 μg/egg) | Mean concentration relative to control, feature 580.1426@3.0726147 (PFOA 250 μg/egg) | Mean concentration relative to control, feature 582.1578@2.1747615 (PFOA 250 μg/egg) | Mean concentration relative to control, feature 594.1337@3.0724604 (PFOA 250 μg/egg)
0.5***: Mean concentration relative to control, feature 305.1682@5.353517 (PFOA 250 μg/egg)
0.3*: Mean concentration relative to control, feature 155.0353@0.6447272 (PFOA 250 μg/egg)
